The values below come from patent US10517889B2, “Modulators of SMAD7 expression” (Ionis Pharmaceuticals, Inc., priority 2017, dated 2019).

A word on the IC50: it is the midpoint of a concentration-inhibition curve. What is called % Inhibition is the share of the control response that was lost under treatment.

In data set [1] the test system is human SMAD7 mRNA. Kind of data set: Antisense inhibition of human SMAD7 mRNA expression in Hep3B cells by 3-10-3 cEt gapmers, 10,000 nM, electroporation (Example 2). It counts as cell-based. The conditions noted are these: approximately 24 hours. The method, boiled down:
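SMAD7 mRNA was measured by real-time PCR (RTS5062) with RiboGreen total-RNA normalization, about 24 h after 10,000 nM gapmer was delivered by electroporation into Hep3B cells at 20,000 per well. Gapmers were 16-mer 3-10-3 cEt, fully phosphorothioate; values are % inhibition versus untreated controls.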

Data set [2] deals with human SMAD7 mRNA. The experiment in a line: Dose-dependent inhibition of human SMAD7 mRNA expression in Hep3B cells (Example 3, Study 1 and 2). It counts as cell-based. The conditions noted are these: electroporation; for % inhibition of SMAD7 mRNA expression: approximately 16 hours; for IC50: Study 2 (740-20000 nM). The method, boiled down: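 Hep3B cells, 20,000 per well, electroporated with antisense oligonucleotide at 0.31, 1.25, 5.00 or 20.00 μM (first series) or 0.74, 2.22, 6.67 or 20.00 μM (second series). After ~16 h, SMAD7 mRNA measured by RT-qPCR (RTS5062), normalised to RIBOGREEN total RNA. Percent inhibition vs untreated cells; IC50 derived.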

[3] abbreviates: Hep3B cells, electroporation with 10,000 nM antisense oligonucleotide, primer probe set RTS5062, relative to untreated control cells.
Where [4] appears, read: 740 nM, Study 2, relative to untreated control cells.
Where [5] appears, read: Hep3B cells, electroporation with 10,000 nM antisense oligonucleotide, RTS5062, percent inhibition of SMAD7 mRNA relative to untreated control cells.

Strand notation (5' to 3'): a small letter for the sugar, then the base; units joined by * are phosphorothioate-linked, units joined directly phosphodiester-linked; [ ] holds rarer units or linkages, { } end groups; capitals alone tell only the bases. k = constrained ethyl (cEt); [5mC] = 5-methylcytosine; d = 2'-deoxy (DNA) A value given as a limit tells only on which side of the number the result lay.

“799406 (antisense kG*kG*kG*dA*dA*d[5mC]*dA*dT*dG*dG*d[5mC]*d[5mC]*dT*kT*kT*k[5mC]) [compound 799406]”: the “% inhibition of SMAD7 mRNA expression” value in the data set on human SMAD7 mRNA [1] (setting [3]) was 65%; in the data set with human SMAD7 mRNA [2] (setting [4]) it was 30%; in the data set on human SMAD7 mRNA [2] (2220 nM, Study 2) it was 51%; with human SMAD7 mRNA [2] (6670.0 nM, Study 2) it was 77%; in the data set with human SMAD7 mRNA [2] (20000.0 nM, Study 2) it was 84%. This substance also displayed a concentration for half-maximal inhibition (IC50) with human SMAD7 mRNA [2] of 3000 nM.

Regarding “772842 (kG*kT*kT*dA*dA*dT*dA*dA*dT*dA*dT*d[5mC]*dT*kT*k[5mC]*k[5mC]; antisense) [compound 772842]”, in the data set on human SMAD7 mRNA [1] (setting [5]), the “% Inhibition” value came out at 79%. In addition, the “% inhibition of SMAD7 mRNA expression” value with human SMAD7 mRNA [2] (setting [4]) was determined as 3%; with human SMAD7 mRNA [2] (2220 nM, Study 2) it was 23%; in the data set on human SMAD7 mRNA [2] (6670.0 nM, Study 2), 65%; in the data set with human SMAD7 mRNA [2] (20000.0 nM, Study 2) it was 72%. Moreover, the IC50 in the data set on human SMAD7 mRNA [2] was 6000 nM.

“799540 (kA*kG*k[5mC]*dT*dG*dA*dA*dG*d[5mC]*d[5mC]*d[5mC]*d[5mC]*d[5mC]*k[5mC]*kA*kA; antisense) [compound 799540]”: the “% inhibition of SMAD7 mRNA expression” value in the data set on human SMAD7 mRNA [1] (Hep3B cells, electroporation, 10,000 nM antisense oligonucleotide, RTS5062, relative to untreated control cells) stood at 76%; in the data set on human SMAD7 mRNA [2] (setting [4]) it was 41%; with human SMAD7 mRNA [2] (2220 nM, Study 2), 60%; with human SMAD7 mRNA [2] (6670.0 nM, Study 2) it was 63%; in the data set with human SMAD7 mRNA [2] (20000.0 nM, Study 2), 73%. Further, in the data set with human SMAD7 mRNA [2], the half-inhibitory concentration (IC50) was 5000 nM.

Consider “829980 (kT*kT*kG*dA*dT*dA*dT*dT*dT*dA*dG*d[5mC]*dT*kG*kT*k[5mC]; antisense) [compound 829980]”, for which, in the data set with human SMAD7 mRNA [1] (SMAD7 mRNA, Hep3B cells, electroporation with 10,000 nM antisense oligonucleotide, primer probe set RTS5062, relative to untreated control cells), the “% Inhibition” value was determined as 56%. The “% inhibition of SMAD7 mRNA expression” value worked out at 52% in the data set on human SMAD7 mRNA [2] (setting [4]); 63% with human SMAD7 mRNA [2] (2220 nM, Study 2); 79% in the data set on human SMAD7 mRNA [2] (6670.0 nM, Study 2); 92% in the data set with human SMAD7 mRNA [2] (20000.0 nM, Study 2). This substance displayed a half-maximal inhibitory concentration (IC50) with human SMAD7 mRNA [2] of 3000 nM.

Turning to “798662 (kG*k[5mC]*kT*d[5mC]*d[5mC]*dG*dG*d[5mC]*dT*dG*d[5mC]*d[5mC]*d[5mC]*k[5mC]*kA*k[5mC]; antisense) [compound 798662]”, the “% inhibition of SMAD7 mRNA expression” value was determined as 62% with human SMAD7 mRNA [1] (setting [3]); 0% in the data set on human SMAD7 mRNA [2] (setting [4]); 28% in the data set on human SMAD7 mRNA [2] (2220 nM, Study 2); 22% in the data set on human SMAD7 mRNA [2] (6670.0 nM, Study 2); 25% in the data set on human SMAD7 mRNA [2] (20000.0 nM, Study 2). In the data set on human SMAD7 mRNA [2], the IC50 was above 20000 nM.

With “799607 (k[5mC]*k[5mC]*kA*dT*dT*dT*dA*d[5mC]*dA*dA*dA*dA*d[5mC]*kT*k[5mC]*kT; antisense) [compound 799607]”, the “% Inhibition” value with human SMAD7 mRNA [1] (setting [5]) amounted to 71%. Also, the “% inhibition of SMAD7 mRNA expression” value in the data set with human SMAD7 mRNA [2] (setting [4]) was 5%; with human SMAD7 mRNA [2] (2220 nM, Study 2) it was 12%; in the data set on human SMAD7 mRNA [2] (6670.0 nM, Study 2) it was 46%; in the data set with human SMAD7 mRNA [2] (20000.0 nM, Study 2) it was 76%. In the data set on human SMAD7 mRNA [2], this substance yielded an IC50 of 2000 nM.

Regarding “790636 (kA*kG*k[5mC]*dA*dT*d[5mC]*dT*dG*dG*dA*d[5mC]*dA*dG*kT*k[5mC]*kA; antisense) [compound 790636]”, the “% inhibition of SMAD7 mRNA expression” value is on record as 95% with human SMAD7 mRNA [1] (Hep3B cells, electroporation, 10,000 nM, 3-10-3 cEt gapmers targeting SEQ ID NO: 3 and 4); 89% in the data set with human SMAD7 mRNA [2] (setting [4]); 93% in the data set with human SMAD7 mRNA [2] (2220 nM, Study 2); 95% in the data set with human SMAD7 mRNA [2] (6670.0 nM, Study 2); 99% with human SMAD7 mRNA [2] (20000.0 nM, Study 2). For the same substance, the IC50 in the data set on human SMAD7 mRNA [2] was below 700 nM.

Consider “799471 (antisense k[5mC]*kA*k[5mC]*dA*dG*dA*dA*dA*dA*dG*d[5mC]*dT*d[5mC]*k[5mC]*kG*k[5mC]) [compound 799471]”, for which the “% Inhibition” value in the data set on human SMAD7 mRNA [1] (Hep3B cells, electroporation with 10,000 nM antisense oligonucleotide, SMAD7 mRNA by RT-PCR (RTS5062), relative to untreated control cells) turned out to be 71%. Moreover, the “% inhibition of SMAD7 mRNA expression” value in the data set on human SMAD7 mRNA [2] (setting [4]) worked out at 0%; with human SMAD7 mRNA [2] (2220 nM, Study 2) it was 9%; with human SMAD7 mRNA [2] (6670.0 nM, Study 2), 14%; in the data set with human SMAD7 mRNA [2] (20000.0 nM, Study 2), 46%. Besides, the IC50 in the data set on human SMAD7 mRNA [2] came to 5000 nM.

Take “799851 (kA*kA*kG*dT*dG*dT*d[5mC]*d[5mC]*dA*dT*d[5mC]*dA*dA*kG*k[5mC]*kA; antisense) [compound 799851]”: the “% Inhibition” value in the data set on human SMAD7 mRNA [1] (Hep3B cells, 10,000 nM antisense oligonucleotide, electroporation, RT-PCR primer probe set RTS5062, relative to untreated control cells) is on record as 70%. In addition, the “% inhibition of SMAD7 mRNA expression” value is recorded as 15% with human SMAD7 mRNA [2] (setting [4]); 36% in the data set with human SMAD7 mRNA [2] (2220 nM, Study 2); 46% in the data set with human SMAD7 mRNA [2] (6670.0 nM, Study 2); 57% with human SMAD7 mRNA [2] (20000.0 nM, Study 2). The concentration for half-maximal inhibition (IC50) in the data set with human SMAD7 mRNA [2] turned out to be 2000 nM.
